Source: article PMC6974622, “DeepMalaria: Artificial Intelligence Driven Discovery of Potent Antiplasmodials” (Frontiers in Pharmacology, 2020)
“Also recorded” adds a separate entry of the source.

Experiments:
[1] = tested on: multidrug resistant P. falciparum strain Dd2; experiment: SYBR Green I Plasmodium growth inhibition assay (fixed concentration screen and EC50); assay type: cell-based, Plasmodium falciparum; conditions: Plasmodium falciparum; Pf Dd2, 1 µM, 72 h; read-out: Inhibition One-point (%)
Experimental: P. falciparum cultures were maintained under standard culture conditions in RPMI 1640 medium supplemented with 25 mM HEPES, pH 7.4, 26 mM NaHCO3, 2% dextrose, 15 mg/L hypoxanthine, 25 mg/L gentamycin, and 0.5% Albumax II maintained at 37°C in 5% CO2 and 95% air. Initially, a fixed concentration phenotypic screening was performed against multidrug resistant P. falciparum strain Dd2 (resistant to chloroquine, pyrimethamine, and mefloquine) using a SYBR Green I assay ([Johnson et al., 2007]; [Vossen et al., 2010]). An EVO-150 robotic liquid handler (Tecan, Morrisville, NC) was used to aliquot compounds at a final concentration of 1 µM followed by addition of culture to 96-well plates (Greiner, Monroe, NC) at 1% parasitemia, 2% hematocrit. Plates were incubated for 72 h at 37°C in a humidified atmosphere 5% CO2/95% air prior to freezing. Plates were subsequently thawed and 1X SYBR Green I was added with lysis buffer (20 mM Tris-HCl, 0.08% saponin, 5 mM EDTA, 0.8% Triton X-100). After incubation at room temperature in dark for 1 h, the fluorescent emission was measured at excition and emission wavelengths of 485 nm and 530 nm, respectively, using a BioTek Synergy neo2 (Winooski, VT) plate reader. […] Curve fitting was performed using GraphPad Prism and EC50 value was determined for each compound.

P. falciparum Dd2 = experiment: Stage-specific activity assay (Giemsa smears, YOYO-1 flow cytometry); assay type: cell-based, Plasmodium falciparum; conditions: synchronized Dd2, compound at 3X EC50 added at 6, 18, 30, 42 hpi
Experimental: P. falciparum Dd2 cell line was synchronized using a combination of 5% sorbitol and magnetic column separation as described ([Roberts et al., 2016]). Cultures at 2% parasitemia and 2% hematocrit were added to microtiter plate wells and measurements began 6 h post-invasion (6 hpi). Hit compounds were added at 3X EC50 concentration at specified time points. Controls are DHA (3X EC50) and untreated cultures. Giemsa-stained thin smears were made for each time point and an aliquot of the culture was fixed for flow cytometric analysis using 0.04% glutaraldehyde in PBS. After fixing and aspirating, cells were permeabilized with 0.25% Triton-100 followed by treatment with RNase (0.05 mg/ml) for 3 h. Next, YOYO 1 (10.24 µM) fluorescent dye was added and samples were analyzed ([Bouillon et al., 2013]) using Beckman Coulter (Indianapolis, IN) CytoFlex S flowcytometer.

Pf Dd2 = experiment: Rate of killing determination; assay type: cell-based, Plasmodium falciparum; conditions: synchronized Dd2, exposure 6 or 12 h, parasitemia tracked for 6 days
Experimental: Pf Dd2 culture was synchronized as described ([Roberts et al., 2016]), plated into 24 well plates at 2% parasitemia and 2% hematocrit at 6 hpi. […] Each well was exposed to the inhibitor for either 6 or 12 h using dihydroartemisinin (DHA) (25 µM) and untreated culture as controls. After washing the compounds off, the media was changed twice a day. The parasitemia was tracked for 6 days after addition of compounds. Thin smears were stained with Giemsa, and parasitemia was counted using microscope.

[2] = tested on: human hepatoma cell line HepG2; experiment: MTS based cytotoxicity assay (counter-screen for selectivity); assay type: cell-based; conditions: 48 h
Experimental: Selectivity was determined by counter-screening against human hepatoma cell line HepG2 in a MTS (3-(4,5-Dimethylthiazol-2-yl)-5-(3-carboxymethoxyphenyl)-2-(4-sulfophenyl)-2H-tetrazolium) based cytotoxicity assay (CellTiter 96® Aqueous One, Promega, Madison, WI) ([Riss et al., 2004]). Briefly, microtiter plates were seeded with 1,500 cells per well in a 384 well plate and incubated for 24 h at 37°C in 5% CO2/95% air atmosphere. The next day, compounds were added at seven different serially diluted concentrations starting at 25 µM d incubated for additional 48 h at stated conditions. MTS solution was next added to each well, incubated for additional 3 h at 37°C, and absorbance was read at 490 nm using BioTek Synergy neo 2 plate reader. Untreated cells served as control. Curve fitting was performed using GraphPad Prism and EC50 value was determined.

CCC1C2=NC(Cc3ccccc3)=C(O2)N(Cc2ccccc2)Cc2cn(nn2)CCCCN1Cc1ccccc1OCCN(C)C (stereo not shown) [DC-9237, CCC1N(CC2=CC=CC=C2OCCN(C)C)CCCCN2C=C(CN(CC3=CC=CC=C3)C3=C(CC4=CC=CC=C4)N=C1O3)N=N2]
inhibition at 1 µM [1]: 95% | Stage specific activity (P. falciparum Dd2): inhibits all asexual stages of Plasmodium falciparum; also recorded: inhibits all asexual blood stages of Dd2 including the early ring stage | Rate of killing (Pf Dd2): fast-acting; also recorded: inhibited growth at all asexual stages after 6 h of exposure and parasite population did not resume growth even after 6 days | EC50 [2]: 17 µM
